# From the supplement of paper PMC10307832
# How the values were obtained:
# Test in all cases: relative viability (nuclei count vs DMSO), 5 days (fraction); higher = more cells survive
# NCI-H1915 = system: NCI-H1915
# In short: (§1)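 Relative viability divides the nuclei count in treated wells by that in vehicle wells. Lung cancer cell lines were seeded in 1536-well plates, dosed by pin tool the next day, and fixed and stained after 5 days in one step with final 0.05% Triton X-100, 1% formaldehyde and 1 ug/ml Hoechst. Dosing was a single drug or a fixed anchor-drug dose plus five library-drug doses (not always all listed) in √10 steps, and values are medians of duplicate plates imaged at 4×.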
# SW 900 = system: SW 900
# In short: as §1
# NCI-H1755 = system: NCI-H1755
# In short: as §1
# LCLC-103H = system: LCLC-103H
# In short: as §1
# NCI-H661 = system: NCI-H661
# In short: as §1
# NCI-H2347 = system: NCI-H2347
# In short: as §1
# NCI-H1651 = system: NCI-H1651
# In short: as §1
# NCI-H3122 = system: NCI-H3122
# In short: as §1
# NCI-H1792 = system: NCI-H1792
# In short: as §1
# NCI-H460 = system: NCI-H460
# In short: as §1
# PC-14 = system: PC-14
# In short: as §1
# LXF-289 = system: LXF-289
# In short: as §1
# NCI-H441 = system: NCI-H441
# In short: as §1
# SK-MES-1 = system: SK-MES-1
# In short: as §1
# RERF-LC-KJ = system: RERF-LC-KJ
# In short: as §1
# NCI-H650 = system: NCI-H650
# In short: as §1
# NCI-H596 = system: NCI-H596
# In short: as §1
# NCI-H520 = system: NCI-H520
# In short: as §1
# NCI-H322M = system: NCI-H322M
# In short: as §1
# NCI-H727 = system: NCI-H727
# In short: as §1
# NCI-H2170 = system: NCI-H2170
# In short: as §1
# NCI-H1563 = system: NCI-H1563
# In short: as §1
# NCI-H1355 = system: NCI-H1355
# In short: as §1
smiles,measurement,setting,value
O=C(O)c1ccc(-c2c[nH]c3ncc(-c4ccccc4)cc23)cc1C1CCCC1 + CCNC(=O)c1noc(-c2cc(C(C)C)c(O)cc2O)c1-c1ccc(CN2CCOCC2)cc1 [Luminespib] (partner 0.01 µM),relative viability,NCI-H1915; first compound 0.04 µM,0.784
same,relative viability,NCI-H1915; first compound 0.1265 µM,0.714
same,relative viability,NCI-H1915; first compound 0.4 µM,0.643
same,relative viability,NCI-H1915; first compound 1.265 µM,0.506
same,relative viability,SW 900; first compound 0.04 µM,0.185
same,relative viability,SW 900; first compound 0.1265 µM,0.171
same,relative viability,SW 900; first compound 0.4 µM,0.175
same,relative viability,SW 900; first compound 1.265 µM,0.156
same,relative viability,NCI-H1755; first compound 0.04 µM,0.375
same,relative viability,NCI-H1755; first compound 0.1265 µM,0.644
same,relative viability,NCI-H1755; first compound 0.4 µM,0.695
same,relative viability,NCI-H1755; first compound 1.265 µM,0.574
same,relative viability,LCLC-103H; first compound 0.04 µM,1.08
same,relative viability,LCLC-103H; first compound 0.1265 µM,1.05
same,relative viability,LCLC-103H; first compound 0.4 µM,0.84
same,relative viability,LCLC-103H; first compound 1.265 µM,0.713
same,relative viability,NCI-H661; first compound 0.04 µM,0.915
same,relative viability,NCI-H661; first compound 0.4 µM,0.905
same,relative viability,NCI-H661; first compound 1.265 µM,0.897
same,relative viability,NCI-H2347; first compound 0.04 µM,0.444
same,relative viability,NCI-H2347; first compound 0.1265 µM,0.794
same,relative viability,NCI-H2347; first compound 0.4 µM,0.275
same,relative viability,NCI-H2347; first compound 1.265 µM,0.408
same,relative viability,NCI-H1651; first compound 0.04 µM,0.927
same,relative viability,NCI-H1651; first compound 0.1265 µM,0.863
same,relative viability,NCI-H1651; first compound 0.4 µM,0.6
same,relative viability,NCI-H1651; first compound 1.265 µM,0.638
same,relative viability,NCI-H3122; first compound 0.04 µM,0.0905
same,relative viability,NCI-H3122; first compound 0.1265 µM,0.0913
same,relative viability,NCI-H3122; first compound 0.4 µM,0.0809
same,relative viability,NCI-H3122; first compound 1.265 µM,0.0888
same,relative viability,NCI-H1792; first compound 0.1265 µM,0.477
same,relative viability,NCI-H1792; first compound 0.4 µM,0.351
same,relative viability,NCI-H1792; first compound 1.265 µM,0.519
same,relative viability,NCI-H460; first compound 0.04 µM,0.0285
same,relative viability,NCI-H460; first compound 0.1265 µM,0.0329
same,relative viability,NCI-H460; first compound 0.4 µM,0.0398
same,relative viability,NCI-H460; first compound 1.265 µM,0.0257
same,relative viability,PC-14; first compound 0.04 µM,0.225
same,relative viability,PC-14; first compound 0.1265 µM,0.129
same,relative viability,PC-14; first compound 0.4 µM,0.141
same,relative viability,PC-14; first compound 1.265 µM,0.134
same,relative viability,LXF-289; first compound 0.04 µM,0.749
same,relative viability,LXF-289; first compound 0.1265 µM,0.614
same,relative viability,LXF-289; first compound 0.4 µM,0.484
same,relative viability,LXF-289; first compound 1.265 µM,0.171
same,relative viability,NCI-H441; first compound 0.04 µM,0.332
same,relative viability,NCI-H441; first compound 0.1265 µM,0.431
same,relative viability,NCI-H441; first compound 0.4 µM,0.266
same,relative viability,NCI-H441; first compound 1.265 µM,0.298
same,relative viability,SK-MES-1; first compound 0.04 µM,0.81
same,relative viability,SK-MES-1; first compound 0.1265 µM,0.973
same,relative viability,SK-MES-1; first compound 0.4 µM,0.596
same,relative viability,SK-MES-1; first compound 1.265 µM,0.35
same,relative viability,RERF-LC-KJ; first compound 0.04 µM,1.32
same,relative viability,RERF-LC-KJ; first compound 0.1265 µM,1.19
same,relative viability,RERF-LC-KJ; first compound 0.4 µM,1.1
same,relative viability,RERF-LC-KJ; first compound 1.265 µM,0.645
same,relative viability,NCI-H650; first compound 0.04 µM,0.866
same,relative viability,NCI-H650; first compound 0.1265 µM,0.861
same,relative viability,NCI-H650; first compound 0.4 µM,0.757
same,relative viability,NCI-H650; first compound 1.265 µM,0.293
same,relative viability,NCI-H596; first compound 0.04 µM,1
same,relative viability,NCI-H596; first compound 0.1265 µM,1.03
same,relative viability,NCI-H596; first compound 0.4 µM,0.909
same,relative viability,NCI-H596; first compound 1.265 µM,0.973
same,relative viability,NCI-H520; first compound 0.04 µM,0.223
same,relative viability,NCI-H520; first compound 0.1265 µM,0.195
same,relative viability,NCI-H520; first compound 0.4 µM,0.211
same,relative viability,NCI-H520; first compound 1.265 µM,0.217
same,relative viability,NCI-H322M; first compound 0.04 µM,0.901
same,relative viability,NCI-H322M; first compound 0.1265 µM,0.934
same,relative viability,NCI-H322M; first compound 0.4 µM,0.846
same,relative viability,NCI-H322M; first compound 1.265 µM,0.664
same,relative viability,NCI-H727; first compound 0.04 µM,0.325
same,relative viability,NCI-H727; first compound 0.1265 µM,0.41
same,relative viability,NCI-H727; first compound 0.4 µM,0.638
same,relative viability,NCI-H727; first compound 1.265 µM,0.281
same,relative viability,NCI-H2170; first compound 0.04 µM,0.745
same,relative viability,NCI-H2170; first compound 0.1265 µM,0.804
same,relative viability,NCI-H2170; first compound 0.4 µM,0.794
same,relative viability,NCI-H2170; first compound 1.265 µM,0.491
same,relative viability,NCI-H1563; first compound 0.04 µM,0.489
same,relative viability,NCI-H1563; first compound 0.1265 µM,0.599
same,relative viability,NCI-H1563; first compound 0.4 µM,0.42
same,relative viability,NCI-H1563; first compound 1.265 µM,0.508
same,relative viability,NCI-H1355; first compound 0.04 µM,0.692
same,relative viability,NCI-H1355; first compound 0.1265 µM,0.622
same,relative viability,NCI-H1355; first compound 0.4 µM,0.464
same,relative viability,NCI-H1355; first compound 1.265 µM,0.384
